Entries after “also recorded” stand apart in the source; their conditions may differ.
Legend:
HL-60 cells [1] = assay: MTT growth inhibition of HL-60; assay type: cell-based, human; details: for inhibition activity of the growth of cancer cells (in words): Example 5; for activity at 10 µM / activity at 20 µM / activity at 40 µM: read-out: degree of cell growth (ratio of absorbance at 590 nm of sample-added section to control)
Description: (§1) (2) To each of the wells of a 96-well microtiter plate was added 8, 40, 200 or 1000 μM aqueous solution of GM or 10 μl of water as a control. HL-60 (ATCC CCL-240) was suspended in an RPMI 1640 medium containing 10% of fetal calf serum to make the concentration 5×10^4 cells/ml and each 90 μl thereof was placed in each well of the above-mentioned microtiter plate and incubated at 37° C. for 48 hours in the presence of 5% carbon dioxide. Incubation was conducted for four hours more after addition of 10 μl of a solution (5 mg/ml) of 3-(4,5-dimethylthiazol-2-yl)-2,5-diphenyltetrzolium bromide (MTT; manufactured by Sigma) in a phosphate-buffered saline solution and the state of growth of the cells was observed under a microscope. Further, 100 μl of 2-propanol containing 0.04N hydrochloric acid was added followed by stirring and an absorbance at 590 nm was measured.
(3) To each well of the 96-well microtiter plate was added 100, 200 or 400 μM aqueous solution of GM or CM or 10 μl of water as a control and the inhibition activity of growth of HL-60 was measured by the same method as mentioned in Example 5-(2). The degree of cell growth was, however, expressed in terms of the ratio (%) of the absorbance at 590 nm of the sample-added section to that of the water-added section (the control).
(§2) (5) To each well of the 96-well microtiter plate was added 4.12, 12.3, 37.0, 111, 333 or 1000 μM aqueous solution of GD or 10 μl of water as a control. HL-60 (ATCC CCL-240) was suspended in an RPMI 1640 medium containing 10% of fetal calf serum to make the concentration 5×10^4 cells/ml and each 90 μl thereof was placed in each well of the above-mentioned microtiter plate followed by incubating at 37° C. for 48 hours in the presence of 5% carbon dioxide gas. The incubation was conducted for four hours more after addition of 10 μl of 5 mg/ml solution of 3-(4,5-dimethylthiazol-2-yl)-2,5-diphenyltetrazolium bromide (MTT; manufactured by Sigma) in a phosphate-buffered saline solution and the state of growth of the cells was observed under a microscope. In the meanwhile, 100 μl of 2-propanol containing 0.04N HCl was added followed by well stirring and the absorbance at 590 nm was measured.
(6) Cyclopentenone and L-cysteine hydrochloride were dissolved in a phosphate buffered saline solution (pH 7.2) to make their concentrations 55 mM and 80 mM, respectively and made to react at 37° C. for 15 minutes at pH 7.2. Apart of the reaction solution was analyzed by a reversed phase HPLC using a column of TSK gel ODS-80Ts (4.6 mm×250 mm; manufactured by Tosoh)at the flow rate of 1 ml/minute using 0.1% aqueous solution of trifluoroacetic acid as a mobile phase whereupon no cyclopentenone was detected. This reaction solution was a solution containing 55 mM of CD.
Degree of cell growth was, however, expressed in terms of the ratio (%) of the absorbance at 590 nm of the section to which the sample was added to that of the control where water was added.

HL-60 cells [2] = assay: Apoptosis in HL-60 cells (apoptic bodies, DNA fragmentation); assay type: cell-based, human; details: at each of the cell-growth-inhibiting concentrations
Description: (1) Each 0.5 ml of 0.2 mM CM, 0.8 mM CM or 1.6 mM CM was added to 4.5 ml of RPMI 1640 medium containing 10% of fetal calf serum and 2.5×10^5HL-60 cells (promyelocytic leukemia cell) (ATCC CCL-240) and incubated at 37° C. for 24 hours or 48 hours in the presence of 5% carbon dioxide gas and the numbers of viable cells were measured.
as §1
(4) HL-60 cells (ATCC CCL240) which were incubated at 37° C. in an RPMI 1640 medium (manufactured by Nissui) containing 10% of fetal calf serum (manufactured by Gibco) treated at 56° C. for 30 minutes were suspended in the above medium to make the concentration 2.5×10^5cells/4.5 ml. To this suspension was added 0.5 ml of 100 μM aqueous solution of GM (final concentration: 10 μM) followed by incubating at 37° C. in the presence of 5% carbon dioxide gas for 24 hours, 48 hours and 72 hours.
as §2

mouse leukemia P-388 = assay: Mouse leukemia P-388 survival (macrobiotic effect) in DBA/2 mice; assay type: in vivo; details: 10 mg/kg/day i.p., five days
Description: GM was diluted with a physiological saline solution to a predetermined concentration and subjected to the following tests.
(2) Mouse leukemia P-388 (1.1×10^6 cells/mouse) was intraperitoneally injected to female DBA/2 mice (body weight: about 20 g) of seven weeks age. After that, GM, CM, GD or CD (10 mg/kg/day) was intraperitoneally injected for consecutive five clays. In the meanwhile, a physiological saline solution was intraperitoneally injected to the control group by the same manner. In the two group each consisting of eight mice, survived numbers, average survived days and macrobiotic rate of the mice were calculated.

Sarcoma-180 = assay: Sarcoma-180/ICR mice macrobiotic effect; assay type: in vivo
IMC = assay: IMC/CDF1 mice macrobiotic effect; assay type: in vivo
EAC = assay: EAC/DDY mice macrobiotic effect; assay type: in vivo
[3] = tested on: Bacillus subtilis IFO 3021; assay: Antibacterial activity, viable cell numbers; assay type: cell-based; details: compared with GM
Description: Bacillus subtilis IFO 3021 was incubated (by mans of a seed culture) overnight in a sensitive bouillon medium (manufactured by Nissui). Absorbance at 600 nm was measured and viable cell numbers were calculated from the previously-prepared calibration curve showing the relation between the viable cell numbers and absorbance at 600 nm. The seed-cultured liquid was diluted with a fresh sensitive bouillon medium to make the concentration 1×10^6 cells/ml and each 180 μl thereof was placed in each well of the 96-well microtiter plate. Each 20 μl of aqueous solution of GM (4 mg/ml or 2 mg/ml) or water was added to each well followed by allowing to a stationary culture at 37° C. for one night (main incubation) In the meanwhile, a part of the seed culture liquid was diluted with sterilized water, spread onto a sensitive bouillon agar plate medium and incubated at 37° C. for one night and the colonies were counted to measure the precise viable cell numbers.
The cultured liquid in each of the wells was diluted with sterilized water, spread onto a sensitive bouillon agar plate medium and incubated at 37° C. for one night and the colonies were counter to measure the viable cell numbers.

HSP70 and HSP90 = details: Amici et al., J. Virology 68, 6890 (1994); cited from earlier work
[4] = tested on: Sendai virus protein synthesis; details: Amici et al., J. Virology 68, 6890 (1994); cited from earlier work
HSP70 = details: cited from earlier work
[5] = tested on: vesicular stomatitis virus protein; details: Rossi et al., J. Biol. Chem. 271, 32192 (1996); cited from earlier work

SMILES | inhibition activity of the growth of cancer cells (in words) (HL-60 cells [1]) | activity at 10 µM (HL-60 cells [1]; Homo sapiens, HL-60, 48 hours) [%] | activity at 20 µM (HL-60 cells [1]; Homo sapiens, HL-60, 48 hours) [%] | activity at 40 µM (HL-60 cells [1]; Homo sapiens, HL-60, 48 hours) [%] | apoptic bodies in the cells (HL-60 cells [2]) | macrobiotic effect (average survived days) (mouse leukemia P-388) | macrobiotic effect (Sarcoma-180) | macrobiotic effect (IMC) | macrobiotic effect (EAC) | antibacterial activity (in words) [3] | synthesis of HSP70 and HSP90 (HSP70 and HSP90) | synthesis of virus protein [4] | IC100 (HL-60 cells [1]; Homo sapiens, HL-60, 48 hours, MTT, final concentration, read-out: concentration at which growth of HL-60 cells was completely inhibited) [µM] | synthesis of HSP70 (HSP70; Rossi et al., J. Biol. Chem. 271, 32192 (1996)) | concentration required for inducing the HSP70 (HSP70) | synthesis of vesicular stomatitis virus protein [5]
N[C@@H](CSC1CC(=O)C(O)C1O)C(=O)O (some centres unmarked) [CD] | inhibition activity of the growth of cancer cells | 89 | 56.2 | 5.3 | Apoptic bodies were produced in the cells | significant macrobiotic effect | same macrobiotic effect | same macrobiotic effect | same macrobiotic effect | same results |  |  |  |  |  | 
CCCCC[C@H](O)/C=C/[C@H]1C=CC(=O)[C@@H]1CCCCCCC(=O)O [prostaglandin Al] |  |  |  |  |  |  |  |  |  |  | synthesis of HSP70 and HS?90 is induced | synthesis of virus protein is inhibited |  |  |  | 
N[C@@H](CCC(=O)N[C@@H](CSC1CC(=O)C(O)C1O)C(=O)NCC(=O)O)C(=O)O (some centres unmarked) [GD, 2,3-dihydroxy-4-glutathion-S-yl-cyclopentanone] | inhibition activity of the growth of cancer cells | 47.2 | 5.8 | 2.1 | apoptic bodies were detected; also recorded: Apoptic bodies were produced in the cells | significant macrobiotic effect | same macrobiotic effect | same macrobiotic effect | same macrobiotic effect | same results |  |  | 3.7 |  |  | 
O=C1C=CCC1 [2-cyclopenten-1-one] |  |  |  |  |  |  |  |  |  |  |  |  |  | induces the synthesis of HSP70 | several hundred | inhibits the synthesis of vesicular stomatitis virus protein

From patent publication US6177592A, “Compounds” (priority 1997, dated 2001)
